Experiments:
[1] = tested on: hippocampus of pilocarpine-treated rats; assay: Hippocampal histology two weeks after seizure induction (thionin cell loss score, Timm stain score); format: in vivo, Sprague Dawley rats; conditions: dosage 5 μg
Experimental: Two weeks after induction of seizure, animals were sacrificed and prepared for routine histology and Timm histochemistry. Following deep anesthesia with sodium pentobarbital (100 mg/kg), rats were perfused transcardially with 300 ml sodium sulfide medium (2.295 g Na2S, 2.975 g NaH2PO4/H2O in 500 ml H2O) followed by 300 ml 4% paraformaldehyd were postfixed in 4% paraformaldehyde for 24 h and then placed in a 30% sucrose solution until they sank to the bottom of the vial. Coronal sections through the entire extent of the hippocampus were cut at 40 μm on a freezing microtome and sections were stored in phosphate buffered saline. Every fourth section was stained for mossy fibers using Timm stain as follows. The sections were developed in the dark for 40-45 min in a solution of 50% Arabic gum (120 ml), 10 ml of citric acid (51 g/100 ml H2O), 10 ml sodium citrate (47 g/100 ml H2O), 3.47 g hydroquinone in 60ml, and 212.25 mg AgNO3. Following washing, the slides were dehydrated in alcohol, cleared in xylene, and mounted on slides with Permount (Fisher Scientific, Pittsburgh, Pa.). Timm staining was analyzed using a scoring system (0 to 5) for terminal sprouting in the CA3 and supragranular regions (Holmes G L, Gaiarsa J L, Chevassus-Au-Louis N, Ben-Ari Y. Consequences of neonatal seizures in the rat: morphological and behavioral effect. Ann. Neurol. 1998; 44: 845-857; Holmes G L, Sarkisian M, Ben-Ari Y, Chevassus-Au-Louis N. Mossy fiber sprouting following recurrent seizures during early development in rats. J. Comp. Neurol. 1999; 404: 537-553; each of which is incorporated herein by reference). […] Slides were analyzed for cell loss in the CA3, CA1 and hilar region using a semi-quantitative visual scoring system (0 to 5) (Mikati M A, Holmes G L, Chronopoulos A, et al. Phenobarbital modifies seizure-related brain injury in the developing brain. Ann. Neurol. 1994; 36: 425-433; incorporated herein by reference). Cell loss was assessed both ipsilateral and contralateral to the injection site. […]

pilocarpine-treated rats = assay: Focal pilocarpine-induced seizures after intrahippocampal pretreatment, behavior scored 0-6; format: in vivo, Sprague Dawley rats
Experimental: The method is similar to that described by Cavalheiro et al. (Cavalheiro E A, Czuzwar S J, Kleinrok S. Intracerebral cholinomimetics produce seizure-related brain damage in rats. Brit. J. Pharmacol. 1983; 79: 284P; incorporated herein by reference). Animals were anesthetized with pentobarbital (40 mg/kg) and an electrode-cannula guide (Plastic one, USA) was stereotactically implanted in the CA3 region of the dorsal hippocampus (lateral from midline 3.5 mm, posterior from bregma 3.8 mm, and 3.8 mm deep from skull; FIG. 35 in (Paxinos G, Watson C. The rat brain in stereotaxic coordinates, 4th edition. San Diego: Academic Press, 1998; incorporated herein by reference)). The electrode-cannula guide was fixed to skull using dental cement and skull screws. After surgery, a dummy cannula was placed into the guide cannula to prevent occlusion. One week later the rats received 30 μl of one anticonvulsant or control treatment (encapsulated or free) through the cannula using a microinfusion pump (Baxter, model AS40A) for 15 min at a rate of 0.12 ml/hr. Thirty minutes after completion of these treatments, 40 mM pilocarpine was infused for 50 min at a rate of 0.12 ml/hr. Subsequently, continuous EEGs were recorded from the electrode-cannulae, and the animals were videotaped for a minimum of two hours. […]

NCc1cc(=O)[nH]o1 [free muscimol, Muscimol]
Timm scores CA3 region ([1]; n=4, mean ± SD): 1.48 ± 0.63 | Timm scores Supragranular ([1]; n=4, mean ± SD): 1.75 ± 0.28 | Total cell loss ([1]; n=4, thionin staining, mean ± SD): 6.27 ± 0.57 | seizure activity as measured by behavior score, versus normal saline (pilocarpine-treated rats; 5 μg intrahippocampal prior to pilocarpine, 120 minute time course, n=4): reduces seizure activity | mortality (pilocarpine-treated rats; unencapsulated comparison groups to the 10 μg and 20 μg particle groups): high mortality
